The values below come from ChEMBL document CHEMBL6074707, “Targeting Cancer: A New Era in Cancer Therapy through Immune Fitness Modulation and KRAS Degradation” (ACS Med Chem Lett, 2024).

Each structure is given as a SMILES string. Bounds are passed on as bounds.

In experiment [1] the test system is Protein cereblon/GTPase KRas (Homo sapiens), P01116+Q96SW2 [G12D]. The experiment in a line: PROTAC activity at CRBN/KRAS G12D mutant in human ASPC1 cells assessed as induction of protein degradation incubated for 24 hrs by Western blot analysis relative to control. It is filed as cell-based. For orientation: In western blotting, separated proteins are transferred to a membrane and probed.
Chain of Protein cereblon/GTPase KRas (Homo sapiens), P01116+Q96SW2 [G12D] (P01116 whole entry G12D): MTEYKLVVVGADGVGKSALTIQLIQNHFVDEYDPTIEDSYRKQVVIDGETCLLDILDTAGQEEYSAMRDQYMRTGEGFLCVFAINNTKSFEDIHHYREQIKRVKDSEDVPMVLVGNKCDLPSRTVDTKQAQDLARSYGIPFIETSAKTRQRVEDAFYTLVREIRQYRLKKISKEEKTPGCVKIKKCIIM
Chain of Protein cereblon/GTPase KRas (Homo sapiens), P01116+Q96SW2 [G12D] (Q96SW2 whole entry partner): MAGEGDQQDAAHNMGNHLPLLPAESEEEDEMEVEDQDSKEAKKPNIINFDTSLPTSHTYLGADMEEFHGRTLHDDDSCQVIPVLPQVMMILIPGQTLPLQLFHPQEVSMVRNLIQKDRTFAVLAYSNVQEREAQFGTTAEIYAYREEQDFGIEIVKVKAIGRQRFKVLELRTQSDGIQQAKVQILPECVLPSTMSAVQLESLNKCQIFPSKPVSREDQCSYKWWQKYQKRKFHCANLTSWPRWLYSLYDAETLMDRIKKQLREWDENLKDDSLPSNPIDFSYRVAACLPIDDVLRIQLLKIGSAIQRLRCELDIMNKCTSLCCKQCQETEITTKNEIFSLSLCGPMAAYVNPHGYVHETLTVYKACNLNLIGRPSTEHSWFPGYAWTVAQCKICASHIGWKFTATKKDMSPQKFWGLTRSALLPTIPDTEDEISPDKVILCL

Experiment [2] deals with Protein cereblon/GTPase KRas (Homo sapiens, UniProt P01116+Q96SW2, G12D). Put plainly: PROTAC activity at CRBN/KRAS G12D mutant in human ASPC1 cells assessed as induction of protein degradation incubated for 24 hrs by Western blot analysis. It is filed as cell-based.
Chain of Protein cereblon/GTPase KRas (P01116 whole entry G12D, stated change not applied): as the sequence (P01116 whole entry G12D) above
Chain of Protein cereblon/GTPase KRas (Q96SW2 whole entry, stated change not applied): as the sequence (Q96SW2 whole entry partner) above

As to `C#Cc1c(F)ccc2cc(O)cc(-c3ncc4c(N5C[C@H]6CC[C@@H](C5)N6)nc(OCCN5CCC(CC6(F)CCN(CC7CCN(c8ccc9c(c8)CN(C8CCC(=O)NC8=O)C9=O)CC7)CC6)CC5)nc4c3F)c12` (some centres undefined), in experiment [1], the Emax is 25%. In experiment [2], the DC50 was more than 1000 nM.
For `C#Cc1c(F)ccc2cc(O)cc(-c3ncc4c(N5C[C@H]6CC[C@@H](C5)N6)nc(OCCN5CCC(CC6CCN(CC7CCN(c8ccc9c(c8)CN(C8CCC(=O)NC8=O)C9=O)CC7)CC6)CC5)nc4c3F)c12` (some centres undefined), the Emax in experiment [1] is more than 70%. Further, the DC50 in experiment [2] is not above 100 nM.
On to `C#Cc1c(F)ccc2cc(O)cc(-c3ncc4c(N5C[C@H]6CC[C@@H](C5)N6)nc(OCCN5CCC(C(F)(F)C6CCN(CC7CCN(c8ccc9c(c8F)CN(C8CCC(=O)NC8=O)C9=O)CC7)CC6)CC5)nc4c3F)c12` (some centres undefined), for which the Emax in experiment [1] was more than 70%. Further, the DC50 in experiment [2] was not above 100 nM.
For the compound `C#Cc1c(F)ccc2cc(O)cc(-c3ncc4c(N5CC6CCC(C5)N6)nc(OC[C@]56CCCN5[C@H](CN5CCN(CC7CCN(c8ccc9c(c8)CN(C8CCC(=O)NC8=O)C9=O)CC7)CC5)CC6)nc4c3F)c12` (some centres undefined), the Emax in experiment [1] was more than 70%. Also, in experiment [2], the DC50 is not above 100 nM.
On to `C#Cc1c(F)ccc2cc(O)cc(-c3ncc4c(N5C[C@H]6CC[C@@H](C5)N6)nc(OCCN5CCC(CN6CC7(CCN(c8ccc9c(c8)CN(C8CCC(=O)NC8=O)C9=O)CC7)C6)CC5)nc4c3F)c12` (some centres undefined), for which, in experiment [1], the Emax is more than 70%. Besides, the 50% degradation concentration (DC50) in experiment [2] is not above 100 nM.
With `C#Cc1c(F)ccc2cc(O)cc(-c3ncc4c(N5C[C@H]6CC[C@@H](C5)N6)nc(OCCN5CCC(CN6CCC7(CC6)CCN(c6ccc8c(c6)CN(C6CCC(=O)NC6=O)C8=O)CC7)CC5)nc4c3F)c12` (some centres undefined), the Emax in experiment [1] was more than 70%. Further, the DC50 in experiment [2] is not above 100 nM.
For the compound `C#Cc1c(F)ccc2cc(O)cc(-c3ncc4c(N5C[C@H]6CC[C@@H](C5)N6)nc(OCCN5CCC(CN6CCC7(CC6)CCN(c6ccc8c(c6F)CN(C6CCC(=O)NC6=O)C8=O)CC7)CC5)nc4c3F)c12` (some centres undefined), the Emax in experiment [1] is more than 70%. Moreover, the DC50 in experiment [2] was not above 100 nM.
The matching figures for `C#Cc1c(F)ccc2cc(O)cc(-c3ncc4c(N5C[C@H]6CC[C@@H](C5)N6)nc(OC[C@@H]5C[C@@H](OC6CCN(c7ccc8c(c7F)CN(C7CCC(=O)NC7=O)C8=O)CC6)CN5C)nc4c3F)c12` (some centres undefined): more than 70% and not above 100 nM.
The matching figures for `C#Cc1c(F)ccc2cc(O)cc(-c3ncc4c(N5C[C@H]6CC[C@@H](C5)N6)nc(OC[C@@H]5C[C@@H](OC6CCN(CC7CCN(c8ccc9c(c8)n(C)c(=O)n9C8CCC(=O)NC8=O)CC7)CC6)CN5C)nc4c3F)c12` (some centres undefined): more than 70% and not above 100 nM.
The matching figures for `C#Cc1c(F)ccc2cc(O)cc(-c3ncc4c(N5C[C@H]6CC[C@@H](C5)N6)nc(OCCN5CCC(CC6CCN(CC7CCN(c8ccc9c(c8)n(C)c(=O)n9C8CCC(=O)NC8=O)CC7)CC6)CC5)nc4c3F)c12` (some centres undefined): more than 70% and not above 100 nM.
As for `C#Cc1c(F)ccc2cc(O)cc(-c3ncc4c(N5C[C@H]6CC[C@@H](C5)N6)nc(OCCN5CCC6(CC5)CCN(CC5CCN(c7ccc8c(c7)CN(C7CCC(=O)NC7=O)C8=O)CC5)CC6)nc4c3F)c12` (some centres undefined), the Emax in experiment [1] was more than 70%. Also, in experiment [2], the half-maximal degradation concentration (DC50) was not above 100 nM.
For `C#Cc1c(F)ccc2cc(O)cc(-c3ncc4c(N5C[C@H]6CC[C@@H](C5)N6)nc(OCCN5CCC(CC6CCN(CC7CCN(c8ccc9c(c8F)CN(C8CCC(=O)NC8=O)C9=O)CC7)CC6)CC5)nc4c3F)c12` (some centres undefined), the Emax in experiment [1] was more than 70%. Further, the DC50 in experiment [2] is not above 100 nM.

Usually Emax stands for the size of the effect at its maximum, as opposed to the concentration needed. By DC50 is commonly meant the midpoint of the concentration-degradation curve.
